This is an account of results in US20190202836A1, “SELECTIVE DUAL INHIBITORS OF PI3 DELTA AND GAMMA PROTEIN KINASES” (Rhizen Pharmaceuticals SA, priority 2014, published 2019).

The nature of data set [1]: Plasma protein binding (equilibrium dialysis), human. The class given is in vitro ADME. The note with it: pH 7.4, 37° C. As to the method: Below is provided the procedure for measuring plasma protein binding (using an equilibrium dialysis method). 745 μL of plasma was transferred into a 2 ml micro centrifuge tube. To that 5 μL of Compound A1 (150 μM) was added. Samples were mixed in the table top vortexer for 2 minutes. 50 μL plasma (n=2) was transferred in a pre-labeled 1.5 mL micro centrifuge tube treated as 0 hour sample.
The remaining 650 μL plasma sample were incubated for 30 minutes at 37° C. in a water bath. After 30 minute incubation, 50 μL plasma (n=2) was removed in a pre-labelled 1.5 mL micro centrifuge tube treated as 0.5 hour sample. 200 μL of the plasma sample (n=2) was transferred into the sample chamber which was indicated by the red ring. The red insert was placed into the base plate and 350 μL of buffer was transferred into the buffer chamber. Plates were incubated at 37° C. at approximately 100 RPM on an orbital shaker or 20 RPM on an up-and-down shaker for 4 hours. 50 μL of post dialysis-sample from the buffer and the plasma chambers were transferred into a pre-labelled micro centrifuged tube. 50 μL of plasma was added to the buffer samples and an equal volume of buffer (KH2PO4 Buffer pH 7.4) to the collected plasma samples. 150 μL of methanol containing internal standard (Tolbutamide 250 ng/ml) was added to precipitate the protein and release compound. […]

For data set [2], the system named is Female Wistar rats. Nature of the data set: Assay 8: Lipopolysaccharide-induced rat air pouch model of inflammation. The class given is in vivo. Conditions: Neutrophil, oral, 1, 3 and 10 mg/kg, pouch fluid 6 h after LPS, read-out: ED50, reduction of neutrophil migration into the rat air pouch. The method, then:
Female Wistar rats (175-200 g) were acclimatized for seven days prior to the start of the experiment. Animals were randomly distributed to various groups based on their body weights. Animals were anaesthetised with ether and subcutaneous air pouches were made by injecting 20 ml of sterile air under the skin in the intra-scapular area (day 0) and maintained with a second 10 ml injection of sterile-filtered air on day 4. On day 6, oral treatment was commenced 1 hour prior to induction of inflammation by s.c. injection of LPS solution on day 6. A volume of 5 ml of LPS solution dissolved in sterile saline (100 μg/kg) was injected into each pouch. Samples of pouch fluid were taken at 6 h after administration of LPS by flushing the pouch with 5 ml of sterile saline and withdrawing 4 ml of fluid. The number of leukocytes present in pouch fluid was determined microscopically using a haemocytometer. Differential cell content was determined by microscopic examination of fluid smears stained with Diff-Quik.

In data set [3] the target is T1, PI3K alpha (Mus musculus, UniProt P42337).
T1 construct: endogenous in cells; host or cells: 3T3 fibroblasts
Nature of the data set: Assay 4A4: PDGF induced Akt phosphorylation in 3T3 cells. The class given is cell-based. Conditions: 3T3 fibroblasts. The method, then:
The objective of this study was to determine the effect of Compound A1 on PI3Kα kinase mediated AktS473 phosphorylation in PDGF induced 3T3 fibroblasts. • 3T3 cells were treated with desired concentrations of the test compound for 15 minutes. 1 ml of 2× PDGF was added such that the final concentration was 20 ng/ml and incubated for 10 minutes. • Media was discarded and washed with 1 ml of ice-cold 1× PBS. • 250 μl of cell lysis buffer was added and incubated on ice for 30 minutes. • Samples were centrifuged and supernatant was collected and stored at −80° C. until analysis. • Samples were analyzed by Western Blotting using pAKT (S473) as the primary and anti-rabbit IgG-HRP as a secondary antibody. • Intensity of the bands was determined using ImageJ 1.42q (NIH, USA) and normalized to Actin (loading control). Data was plotted using GraphPad Prism (Version 5.02).

Data set [4] deals with TNFα. The experiment in a line: Assay 6A: Cytokine assay in human PBMC, LPS induced TNFα. In kind it is cell-based. The note with it: LPS 1 μg/ml, 6 hours, 2-3 independent experiments, read-out: EC50, antigen-induced TNFα. As to the method: The objective of this study was to assess the inhibitory potential of Compound A1 on antigen-induced cytokine release in human PBMC
• Heparinized human whole blood was diluted 1:1 with PBS, over laid on leukocyte separation medium and centrifuged at 400 g for 40 minutes. • Buffy layer was removed and washed with PBS • 0.15*10^6 of PBMCs were plated in 100 μl per well in RPMI media and incubated for 2 h. • 50 μl of 3× of the compound dilution in media was added and incubated for 15 min. • TNFα—induced with 50 μl of LPS in RPMI such that final concentration was 1 μg/ml. Supernatant was collected at 6 hours. • IL-2-induced with 50 μl of PHA in RPMI such that final concentration was 20 μg/ml. Supernatant was collected at 24 hours. • IL-4-induced with 50 μl of PHA in RPMI such that final concentration was 20 μg/ml.
EC50 values were calculated from 2-3 independent experiments.

For data set [5], the target named is PI3Kδ (Homo sapiens, UniProt O00329). The experiment in a line: Assay 1: Fluorescent (HTRF) determination of PI3 kinase enzyme activity, PI3Kδ. The class given is biochemical. An excerpt: Phosphoinositide 3 kinases (PI3K) belong to a class of lipid kinases that play a critical role in the regulation of several key cellular processes. The PI3K are capable of phosphorylating the 3-hydroxy position of phosphoinositols thereby generating second messengers involved in downstream signaling events. The homogenous time resolved fluorescence (HTRF) assay allows detection of 3,4,5-triphosphate (PIPS) formed as a result of phosphorylation of phosphotidylinositol 4,5-biphosphate (PIP2) by PI3K isoforms such as α, β, γ or δ.
PI3K isoform activity for α, β, γ or δ was determined using a PI3K human HTRF™ Assay Kit (Millipore, Billerica, Mass.) with modifications. All incubations were carried out at room temperature. 0.5 μl of 40× inhibitor (in 100% DMSO) or 100% DMSO were added to each well of a 384-well white plate (Greiner Bio-One, Monroe, N.C.) containing 14.5 μl 1× reaction buffer/PIP2 (10 mM MgCl2, 5 mM DTT, 1.38 μM PIP2) mix with or without enzyme, followed by 5 μl/well of 400 μM ATP and incubated for an additional 30 minutes. The reaction was terminated by adding 5 μl/well stop solution (Millipore, Billerica, Mass.). 5 μl of detection mix (Millipore, Billerica, Mass.) was then added to each well and incubated for 6-18 hours in the dark. HRTF ratio was measured on a microplate reader (BMG Labtech., Germany) at an excitation wavelength of 337 nm and emission wavelengths of 665 and 615 nm with an integration time of 400 msec counting delay of 50 msec.

T1 sequence (P42337 whole entry): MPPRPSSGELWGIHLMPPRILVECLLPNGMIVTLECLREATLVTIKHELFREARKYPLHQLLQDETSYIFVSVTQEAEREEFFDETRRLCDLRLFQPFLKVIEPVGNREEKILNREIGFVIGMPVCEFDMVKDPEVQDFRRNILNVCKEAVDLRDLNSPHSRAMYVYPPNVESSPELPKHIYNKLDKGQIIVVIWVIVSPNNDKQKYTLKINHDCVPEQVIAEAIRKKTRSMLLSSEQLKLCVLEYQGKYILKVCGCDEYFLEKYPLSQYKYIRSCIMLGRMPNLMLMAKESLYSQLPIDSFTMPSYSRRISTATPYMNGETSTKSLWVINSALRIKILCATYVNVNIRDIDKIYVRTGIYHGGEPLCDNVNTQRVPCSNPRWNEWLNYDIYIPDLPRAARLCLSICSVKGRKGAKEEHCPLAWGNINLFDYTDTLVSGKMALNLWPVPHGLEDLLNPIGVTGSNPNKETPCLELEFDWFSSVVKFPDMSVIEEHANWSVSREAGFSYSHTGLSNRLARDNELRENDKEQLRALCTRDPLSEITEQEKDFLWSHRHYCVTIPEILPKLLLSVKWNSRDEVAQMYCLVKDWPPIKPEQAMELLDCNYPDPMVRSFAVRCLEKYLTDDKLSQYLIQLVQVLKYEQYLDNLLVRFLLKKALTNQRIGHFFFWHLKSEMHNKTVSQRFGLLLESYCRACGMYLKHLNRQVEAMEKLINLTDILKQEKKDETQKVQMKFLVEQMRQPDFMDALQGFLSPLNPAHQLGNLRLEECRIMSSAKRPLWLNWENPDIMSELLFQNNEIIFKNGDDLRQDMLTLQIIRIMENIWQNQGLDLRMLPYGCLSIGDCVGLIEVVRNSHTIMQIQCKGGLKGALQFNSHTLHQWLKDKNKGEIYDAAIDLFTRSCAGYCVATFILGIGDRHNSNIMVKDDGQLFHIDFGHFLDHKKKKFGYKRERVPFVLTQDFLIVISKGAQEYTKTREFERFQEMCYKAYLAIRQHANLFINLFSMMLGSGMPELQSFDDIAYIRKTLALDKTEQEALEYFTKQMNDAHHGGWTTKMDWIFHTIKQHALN
T1 sequence (P26450 whole entry partner): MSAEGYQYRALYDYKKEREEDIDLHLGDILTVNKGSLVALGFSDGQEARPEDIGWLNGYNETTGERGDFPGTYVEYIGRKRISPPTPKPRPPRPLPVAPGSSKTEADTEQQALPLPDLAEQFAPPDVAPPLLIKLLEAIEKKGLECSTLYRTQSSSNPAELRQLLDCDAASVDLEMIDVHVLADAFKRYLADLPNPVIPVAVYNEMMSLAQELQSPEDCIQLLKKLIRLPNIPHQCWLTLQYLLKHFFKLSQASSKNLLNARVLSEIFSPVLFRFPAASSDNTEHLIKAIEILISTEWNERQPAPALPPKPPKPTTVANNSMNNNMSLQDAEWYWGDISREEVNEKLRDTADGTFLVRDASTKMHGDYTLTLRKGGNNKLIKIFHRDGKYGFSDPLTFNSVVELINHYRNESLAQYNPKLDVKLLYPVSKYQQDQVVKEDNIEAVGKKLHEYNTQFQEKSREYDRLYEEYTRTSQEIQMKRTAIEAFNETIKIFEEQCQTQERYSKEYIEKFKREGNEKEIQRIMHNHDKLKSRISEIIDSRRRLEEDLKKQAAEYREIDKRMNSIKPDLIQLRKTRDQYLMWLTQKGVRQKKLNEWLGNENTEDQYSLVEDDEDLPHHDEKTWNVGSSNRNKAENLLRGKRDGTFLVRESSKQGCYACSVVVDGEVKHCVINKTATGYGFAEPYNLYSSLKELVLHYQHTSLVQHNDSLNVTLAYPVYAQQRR
Chain of PI3Kδ (O00329 whole entry, canonical isoform): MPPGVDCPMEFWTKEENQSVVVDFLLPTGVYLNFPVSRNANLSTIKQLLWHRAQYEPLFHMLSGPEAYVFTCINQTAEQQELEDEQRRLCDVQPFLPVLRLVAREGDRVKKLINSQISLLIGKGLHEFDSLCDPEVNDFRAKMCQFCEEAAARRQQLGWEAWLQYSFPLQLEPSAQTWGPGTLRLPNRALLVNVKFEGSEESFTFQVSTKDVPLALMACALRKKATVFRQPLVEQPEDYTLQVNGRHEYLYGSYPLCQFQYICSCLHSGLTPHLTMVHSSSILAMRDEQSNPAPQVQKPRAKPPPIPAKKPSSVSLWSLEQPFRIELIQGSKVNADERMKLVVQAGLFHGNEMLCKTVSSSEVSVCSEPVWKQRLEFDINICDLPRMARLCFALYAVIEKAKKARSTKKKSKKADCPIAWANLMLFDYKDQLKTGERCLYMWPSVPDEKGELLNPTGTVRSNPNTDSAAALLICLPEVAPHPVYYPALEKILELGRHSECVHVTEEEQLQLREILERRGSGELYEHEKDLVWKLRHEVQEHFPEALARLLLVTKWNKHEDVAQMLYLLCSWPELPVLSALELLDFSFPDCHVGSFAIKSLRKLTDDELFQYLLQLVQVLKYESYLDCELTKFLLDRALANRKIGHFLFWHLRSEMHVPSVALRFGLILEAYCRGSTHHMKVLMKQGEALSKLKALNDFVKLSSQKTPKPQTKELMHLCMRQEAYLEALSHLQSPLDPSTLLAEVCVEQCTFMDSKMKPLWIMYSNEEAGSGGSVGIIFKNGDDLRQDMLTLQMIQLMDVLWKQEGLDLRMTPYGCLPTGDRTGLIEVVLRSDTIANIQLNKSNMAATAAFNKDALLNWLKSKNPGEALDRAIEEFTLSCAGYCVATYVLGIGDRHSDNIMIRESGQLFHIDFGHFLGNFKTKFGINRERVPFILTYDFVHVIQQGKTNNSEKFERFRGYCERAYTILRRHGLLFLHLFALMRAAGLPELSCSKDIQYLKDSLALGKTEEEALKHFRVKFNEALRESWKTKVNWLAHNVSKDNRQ
Chain of PI3Kδ (P27986 whole entry partner, canonical isoform): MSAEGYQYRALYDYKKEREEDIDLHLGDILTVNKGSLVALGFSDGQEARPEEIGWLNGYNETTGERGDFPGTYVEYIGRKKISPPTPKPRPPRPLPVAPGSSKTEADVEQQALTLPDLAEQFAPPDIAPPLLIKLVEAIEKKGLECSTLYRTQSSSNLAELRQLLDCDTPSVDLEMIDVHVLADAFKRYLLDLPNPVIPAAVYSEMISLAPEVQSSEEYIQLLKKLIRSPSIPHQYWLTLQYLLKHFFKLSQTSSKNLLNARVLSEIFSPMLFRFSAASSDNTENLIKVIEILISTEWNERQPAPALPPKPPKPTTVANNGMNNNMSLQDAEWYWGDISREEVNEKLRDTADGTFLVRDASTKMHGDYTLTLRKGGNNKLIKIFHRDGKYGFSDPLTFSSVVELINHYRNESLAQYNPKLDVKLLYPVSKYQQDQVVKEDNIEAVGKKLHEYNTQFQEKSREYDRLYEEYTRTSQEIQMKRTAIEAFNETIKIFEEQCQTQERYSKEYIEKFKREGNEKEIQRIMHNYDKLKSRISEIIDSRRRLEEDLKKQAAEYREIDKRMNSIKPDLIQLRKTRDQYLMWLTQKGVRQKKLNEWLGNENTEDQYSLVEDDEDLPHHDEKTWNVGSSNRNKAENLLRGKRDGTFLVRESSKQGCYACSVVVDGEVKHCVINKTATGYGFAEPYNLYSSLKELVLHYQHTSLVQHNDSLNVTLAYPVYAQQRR

Regarding `COc1ccc(-c2nn([C@@H](C)c3oc4cccc(F)c4c(=O)c3-c3cccc(F)c3)c3ncnc(N)c23)cc1NS(C)(=O)=O` [Compound A1, (S)—N-(5-(4-amino-1-(1-(5-fluoro-3-(3-fluorophenyl)-4-oxo-4H-chromen-2-yl)ethyl)-1H-pyrazolo[3,4-d]pyrimidin-3-yl)-2-methoxyphenyl)methanesulfonamide], the fraction unbound at 4 h, 1 μM in data set [1] was 0.0276. For the same compound, the ED50 in data set [2] was 2.65 mg/kg. Further, the “inhibition of PDGF induced AktS473 phosphorylation at 10 μM” value in data set [3] (10 μM) was “No inhibition”. Besides, the IC50 was more than 10000 nM in data set [3] (PDGF 20 ng/ml, read-out: Cellular IC50 PI3K alpha (PDGF induced pAKT in 3T3 fibroblasts)) and 30.5 nM in data set [5]. Moreover, the EC50 in data set [4] turned out to be 7.1 nM.
